Values after ≈ are worked out from the molar mass of the structure shown.
Test system: S. aureus
Experiment: MIC in increasing concentrations of plasma
Format: cell-based
Settings: Staphylococcus aureus
From the text: […]. Serum binding is significant in drug distribution and bioavailability.
[…]. Bactericidal activity is much more affected than inhibitory activity.

What does the source list for `C/C(=C\c1ccc2c(c1)OCO2)[N+](=O)[O-]` [Compound (1)]?
MIC (0% plasma in MHB): 4 µg/mL (≈ 19.3 µM); MIC (1% plasma in MHB): 4 µg/mL (≈ 19.3 µM); MIC (2.5% plasma in MHB): 8 µg/mL (≈ 38.6 µM); MIC (5% plasma in MHB): 8 µg/mL (≈ 38.6 µM); MIC (10% plasma in MHB): 16 µg/mL (≈ 77.2 µM); MIC (20% plasma in MHB): 32 µg/mL (≈ 154 µM); MIC (50% plasma in MHB): 128 µg/mL (≈ 618 µM); MIC (100% plasma in MHB): 128 µg/mL (≈ 618 µM)

— patent US20150258059A1, “ANTIMICROBIAL AND RADIOPROTECTIVE COMPOUNDS” (BioDiem, Ltd, priority 2001, published 2015)
